Measurements taken from ChEMBL document CHEMBL1130307, “Inhibition of Matrix Metalloproteinases: An examination of the S1 pocket” (Bioorg Med Chem Lett, 1997).

How the values were obtained:
Interstitial collagenase [1] = target: T1, Interstitial collagenase (Homo sapiens, UniProt P03956)
T1 sequence (P03956 whole entry): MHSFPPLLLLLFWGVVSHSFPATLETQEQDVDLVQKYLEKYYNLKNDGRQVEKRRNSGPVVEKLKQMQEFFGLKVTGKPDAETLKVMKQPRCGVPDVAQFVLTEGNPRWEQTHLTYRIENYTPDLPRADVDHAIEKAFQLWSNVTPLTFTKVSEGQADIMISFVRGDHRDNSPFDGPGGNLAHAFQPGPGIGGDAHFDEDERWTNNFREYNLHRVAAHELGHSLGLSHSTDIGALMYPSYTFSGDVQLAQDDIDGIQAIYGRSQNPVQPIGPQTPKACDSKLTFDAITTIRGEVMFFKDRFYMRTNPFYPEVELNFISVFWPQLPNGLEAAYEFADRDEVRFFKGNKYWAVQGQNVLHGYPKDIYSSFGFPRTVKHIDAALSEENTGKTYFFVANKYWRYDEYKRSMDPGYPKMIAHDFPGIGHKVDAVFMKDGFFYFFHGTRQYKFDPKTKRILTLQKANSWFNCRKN

Stromelysin-1 [2] = target: T2, Stromelysin-1 (Homo sapiens, UniProt P08254)
Matrilysin = target: T3, Matrilysin (Homo sapiens, UniProt P09237)
T3 sequence (P09237 whole entry): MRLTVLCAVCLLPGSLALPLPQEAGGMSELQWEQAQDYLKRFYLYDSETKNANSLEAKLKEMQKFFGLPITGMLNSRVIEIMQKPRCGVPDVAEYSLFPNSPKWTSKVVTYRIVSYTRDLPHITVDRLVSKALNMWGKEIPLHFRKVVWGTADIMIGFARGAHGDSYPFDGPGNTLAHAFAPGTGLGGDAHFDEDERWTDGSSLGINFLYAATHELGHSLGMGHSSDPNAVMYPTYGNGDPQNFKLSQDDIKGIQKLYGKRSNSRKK

Stromelysin-1 [3] = target: T2, Stromelysin-1; remark: listed apart in the source
Interstitial collagenase [4] = target: T1, Interstitial collagenase; remark: listed apart in the source

T2 sequence (P08254 whole entry): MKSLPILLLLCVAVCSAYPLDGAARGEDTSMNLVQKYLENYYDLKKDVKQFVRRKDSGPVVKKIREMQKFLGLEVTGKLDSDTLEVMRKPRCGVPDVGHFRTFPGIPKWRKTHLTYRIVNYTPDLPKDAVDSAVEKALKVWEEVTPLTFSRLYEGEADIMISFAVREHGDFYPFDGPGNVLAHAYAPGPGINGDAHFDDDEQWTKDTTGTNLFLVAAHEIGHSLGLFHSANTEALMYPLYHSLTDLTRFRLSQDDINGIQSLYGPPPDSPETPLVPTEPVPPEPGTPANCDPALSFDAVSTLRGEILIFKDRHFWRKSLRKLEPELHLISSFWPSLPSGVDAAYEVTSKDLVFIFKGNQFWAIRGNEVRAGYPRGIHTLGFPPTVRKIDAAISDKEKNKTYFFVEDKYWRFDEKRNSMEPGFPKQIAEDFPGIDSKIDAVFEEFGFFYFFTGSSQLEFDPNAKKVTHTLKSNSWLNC

| IC50 (Interstitial collagenase [1]) | IC50 (Stromelysin-1 [2]) | IC50 (Matrilysin) | Compound | further results |
| --- | --- | --- | --- | --- |
| 20000 nM |  |  | CCCCCC[C@H](CC(=O)O)C(=O)N[C@@H](Cc1ccccc1)C(=O)NC |  |
| 20 nM | 80 nM | 2000 nM | CCCCCC[C@H](CC(=O)NO)C(=O)N[C@@H](Cc1ccccc1)C(=O)NC |  |
|  |  | 500 nM | CNC(=O)[C@@H](NC(=O)[C@H](CCCCCCCCCCCCCCO)CC(=O)NO)C(C)(C)C | IC50 (Stromelysin-1 [3]): 50 nM |
|  | 5000 nM |  | CCCCCCCC[C@H](CC(=O)O)C(=O)N[C@@H](Cc1ccccc1)C(=O)NC |  |
|  | 30000 nM | 40000 nM | CCCCCCCC[C@H](CC(=O)O)C(=O)N[C@H](C(=O)NC)C(C)(C)C |  |
|  | 300 nM |  | CCCCCCCCCCCCCCCC[C@H](CC(=O)NO)C(=O)N[C@@H](Cc1ccccc1)C(=O)NC |  |
| 400 nM | 40 nM | 2000 nM | CCCCCCC[C@H](CC(=O)NO)C(=O)N[C@@H](Cc1ccccc1)C(=O)NC |  |
| 1000 nM | 500 nM | 10000 nM | CNC(=O)[C@H](Cc1ccccc1)NC(=O)[C@H](CCCc1ccccc1)CC(=O)NO |  |
|  |  | 2000 nM | CCCCCCCCCCCCC[C@H](CC(=O)NO)C(=O)N[C@H](C(=O)NC)C(C)(C)C | IC50 (Stromelysin-1 [3]): 60 nM |
|  |  |  | CCCCCCCCCCCCCCCC[C@H](CC(=O)O)C(=O)N[C@H](C(=O)NC)C(C)(C)C | IC50 (Stromelysin-1 [3]): 10000 nM |
|  |  | 500 nM | CCCCCCCC[C@H](CC(=O)NO)C(=O)N[C@H](C(=O)NC)C(C)(C)C | IC50 (Stromelysin-1 [3]): 100 nM |
|  | 7000 nM |  | CCCCCCCCCCCCCCC[C@H](CC(=O)O)C(=O)N[C@H](C(=O)NC)C(C)(C)C |  |
|  |  |  | CCCCCCCCCCCCCCCC[C@H](CC(=O)NO)C(=O)N[C@H](C(=O)NC)C(C)(C)C | IC50 (Stromelysin-1 [3]): 90 nM |
|  |  |  | CCCCCCCCCCCCCC[C@H](CC(=O)NO)C(=O)N[C@H](C(=O)NC)C(C)(C)C | IC50 (Stromelysin-1 [3]): 70 nM |
| 500 nM | 30 nM | 3000 nM | CCCCCCCCC[C@H](CC(=O)NO)C(=O)N[C@@H](Cc1ccccc1)C(=O)NC |  |
|  |  |  | CCCCCCCCC[C@H](CC(=O)NO)C(=O)N[C@H](C(=O)NC)C(C)(C)C | IC50 (Interstitial collagenase [4]): 375 nM |
| 20 nM | 1000 nM | 2000 nM | CCCCCCCCCC[C@H](CC(=O)NO)C(=O)N[C@@H](Cc1ccccc1)C(=O)NC |  |
|  |  | 6 nM | CNC(=O)[C@H](Cc1ccccc1)NC(=O)[C@H](CC(C)C)[C@H](CSc1cccs1)C(=O)NO [BATIMASTAT] |  |
| 7000 nM | 20000 nM |  | CCCCCCCCC[C@H](CC(=O)O)C(=O)N[C@@H](Cc1ccccc1)C(=O)NC |  |
|  | 80 nM |  | CCCCCCCCCCCCCC[C@H](CC(=O)NO)C(=O)N[C@@H](Cc1ccccc1)C(=O)NC |  |
|  | 4000 nM |  | CCCCCCCCCCCCCC[C@H](CC(=O)O)C(=O)N[C@H](C(=O)NC)C(C)(C)C |  |
| 7000 nM |  |  | CCCCCCC[C@H](CC(=O)O)C(=O)N[C@@H](Cc1ccccc1)C(=O)NC |  |
|  | 50000 nM |  | CCCCCCCCCCCCCCCC[C@H](CC(=O)O)C(=O)N[C@@H](Cc1ccccc1)C(=O)NC |  |
|  | 2000 nM |  | CCCCCCCCCCCCC[C@H](CC(=O)O)C(=O)N[C@H](C(=O)NC)C(C)(C)C |  |
| 50000 nM | 40 nM |  | CCCCCCCCCCCC[C@H](CC(=O)NO)C(=O)N[C@@H](Cc1ccccc1)C(=O)NC |  |
| 150 nM | 450 nM | 1000 nM | CCCCCCCC[C@H](CC(=O)NO)C(=O)N[C@@H](Cc1ccccc1)C(=O)NC |  |
